Biological target: T1, MC4 (Homo sapiens, UniProt P32245)
T1 construct: purchased Perkin Elmer BioSignal; host or cells: HEK 293
Assay: GPCR radioligand binding (RLB) assay, melanocortin MC4, [125I]NDP-αMSH
Conditions: 10 micromolar compound; recombinant human receptor membranes (HEK 293)
Procedure: Recombinant human receptors expressed in HEK 293 cells were used for all experiments. Receptor membrane preparations were purchased from Perkin Elmer BioSignal. The labelled ligand used in somatostatin GPCR RLB assays was [^125I]SST-14 and in melanocortin assays was [^125I]NDP-αMSH. All assays were done in a 96-well plate format using either glass fiber filter mats or filter plates. All reagents purchased were of the highest quality.
Specific assay buffer, incubation and washing conditions were optimized for each receptor however they all followed the same general format. The procedures for both filter mat and filter plate formats are based on the receptor manufacturers recommendations or those described extensively in the literature. The procedures are briefly outlined below.
In assays where filter mats are used we incubate receptor membranes, assay buffer and [^125I] labelled ligand in 96 well microplates. Add compounds to incubation mixture and continue incubation for optimized period. Presoak Filter mat GF/B in 0.5% PEI for ˜2 hr at 4° C. On completion of assay mixture incubation add additional 100 μL/well of assay buffer immediately prior to filtration. Filter the assay mixture onto the GF/B filter mat using a cell harvester. Dry the filter mats prior to sealing them into a scintillation counting bag with scintillant. Radioactivity in each well is detected by liquid scintillation counting.
In assays where filter plates are used Multiscreen glass fiber filter plates (Millipore, Cat No MAFCNOB10) are precoated with 0.5% PEI for ˜2 hr at 4° C. All wells are then washed with 200 µl/well assay buffer and filtered using the Multiscreen Separation System. Subsequently receptor membranes, assay buffer and labelled ligands are added to the wells and equilibrated. Compounds for testing are then added to the mixture and incubation is continued for an optimized time. Plates are then put into the Multiscreen Separation System and the assay mixture is filtered through the plate under vacuum. Each well is then washed several times with assay buffer. Plates are then dried prior to putting sealing tape onto the bottom of the plate. Scintillant is added to each well and radioactivity measured by liquid scintillation counting.
Raw data was analysed according to standard methods using either GraphPad Prism software or IDDBS ActivityBase software.

T1 sequence (P32245 whole entry): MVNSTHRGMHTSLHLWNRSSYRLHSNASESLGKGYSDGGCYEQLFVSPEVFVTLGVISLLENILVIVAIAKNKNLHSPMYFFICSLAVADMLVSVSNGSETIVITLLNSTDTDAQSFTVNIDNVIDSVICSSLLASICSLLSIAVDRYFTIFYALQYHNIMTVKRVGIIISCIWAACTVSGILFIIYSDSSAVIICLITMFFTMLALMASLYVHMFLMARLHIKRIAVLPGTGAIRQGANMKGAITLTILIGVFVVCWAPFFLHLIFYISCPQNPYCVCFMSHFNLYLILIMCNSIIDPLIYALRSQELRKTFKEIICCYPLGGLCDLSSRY

| Structure (SMILES) | MC4 inhibition at 10 micromolar |
| --- | --- |
| COC1C(O)C(COCc2ccc3ccccc3c2)OC(OCc2ccc3ccccc3c2)C1NC(=O)CCCNC(=N)N (stereo not shown) [Compound 74] | + (Indicates inhibition greater than . . . 50%) |
| COC1C(O)C(COCc2ccc(Cl)cc2)OC(OCc2ccc3ccccc3c2)C1NC(=O)CNC(=N)N (stereo not shown) [Compound 75] | + (Indicates inhibition greater than . . . 50%) |
| COC1C(O)C(COCc2ccc(Cl)cc2)OC(OCc2ccc3ccccc3c2)C1NC(=O)CCNC(=N)N (stereo not shown) [Compound 76] | + (Indicates inhibition greater than . . . 50%) |
| COC1C(O)C(COCc2ccc(Cl)cc2)OC(OCc2ccc3ccccc3c2)C1NC(=O)CCCNC(=N)N (stereo not shown) [Compound 78] | + (Indicates inhibition greater than . . . 50%) |
| COC1C(O)C(COCc2ccc(-c3ccccc3)cc2)OC(OCc2ccccc2)C1NC(=O)CCCNC(=N)N (stereo not shown) [Compound 79] | + (Indicates inhibition greater than . . . 50%) |
| COC1C(O)C(COCc2ccc(Cl)cc2)OC(OCc2ccccc2)C1NC(=O)CCCN (stereo not shown) [Compound 81] | + (Indicates inhibition greater than . . . 50%) |
| COC1C(O)C(COCc2ccc(Cl)cc2)OC(OCc2ccccc2)C1NC(=O)CCCNC(=N)N (stereo not shown) [Compound 82] | + (Indicates inhibition greater than . . . 50%) |
| COC1C(O)C(COCc2ccc(-c3ccccc3)cc2)OC(OCc2ccc(Cl)cc2)C1NC(=O)CNC(=N)N (stereo not shown) [Compound 83] | + (Indicates inhibition greater than . . . 50%) |
| COC1C(O)C(COCc2ccc(-c3ccccc3)cc2)OC(OCc2ccc(Cl)cc2)C1NC(=O)CCCN (stereo not shown) [Compound 85] | + (Indicates inhibition greater than . . . 50%) |
| CO[C@H]1[C@H](O)[C@@H](COCc2ccc(Cl)cc2)OC(OCc2ccc(Cl)cc2)[C@@H]1NC(=O)CNC(=N)N (stereo partly shown) [Compound 92] | + (Indicates inhibition greater than . . . 50%) |
| CO[C@H]1[C@H](O)[C@@H](COCc2ccc(Cl)cc2)OC(OCc2ccc(Cl)cc2)[C@@H]1NC(=O)CCNC(=N)N (stereo partly shown) [Compound 93] | + (Indicates inhibition greater than . . . 50%) |
| CO[C@H]1[C@H](O)[C@@H](COCc2ccc(Cl)cc2)OC(OCc2ccc(Cl)cc2)[C@@H]1NC(=O)CCCNC(=N)N (stereo partly shown) [Compound 95] | + (Indicates inhibition greater than . . . 50%) |
| CO[C@H]1[C@H](O)[C@@H](COCc2ccc(-c3ccccc3)cc2)OC(OCCc2ccccc2)[C@@H]1NC(=O)CNC(=N)N (stereo partly shown) [Compound 96] | + (Indicates inhibition greater than . . . 50%) |
| CO[C@H]1[C@H](O)[C@@H](COCc2ccc(-c3ccccc3)cc2)OC(OCCc2ccccc2)[C@@H]1NC(=O)CCNC(=N)N (stereo partly shown) [Compound 97] | + (Indicates inhibition greater than . . . 50%) |
| CO[C@H]1[C@H](O)[C@@H](COCc2ccc(-c3ccccc3)cc2)OC(OCCc2ccccc2)[C@@H]1NC(=O)CCCNC(=N)N (stereo partly shown) [Compound 99] | + (Indicates inhibition greater than . . . 50%) |
| CO[C@H]1[C@H](O)[C@@H](COCc2ccc3ccccc3c2)OC(OCCc2ccccc2)[C@@H]1NC(=O)CNC(=N)N (stereo partly shown) [Compound 100] | + (Indicates inhibition greater than . . . 50%) |
| CO[C@H]1[C@H](O)[C@@H](COCc2ccc3ccccc3c2)OC(OCCc2ccccc2)[C@@H]1NC(=O)CCNC(=N)N (stereo partly shown) [Compound 101] | + (Indicates inhibition greater than . . . 50%) |
| CO[C@H]1[C@H](O)[C@@H](COCc2ccc(Cl)cc2)OC(OCCc2ccccc2)[C@@H]1NC(=O)CNC(=N)N (stereo partly shown) [Compound 104] | + (Indicates inhibition greater than . . . 50%) |
| CO[C@H]1[C@H](O)[C@@H](COCc2ccc(Cl)cc2)OC(OCCc2ccccc2)[C@@H]1NC(=O)CCNC(=N)N (stereo partly shown) [Compound 105] | + (Indicates inhibition greater than . . . 50%) |
| CO[C@H]1[C@H](O)[C@@H](COCc2ccc(Cl)cc2)OC(OCCc2ccccc2)[C@@H]1NC(=O)CCCNC(=N)N (stereo partly shown) [Compound 107] | + (Indicates inhibition greater than . . . 50%) |
| CO[C@H]1[C@H](O)[C@@H](COCc2cccc(O)c2)OC(OCc2ccc(-c3ccccc3)cc2)[C@@H]1NC(=O)CNC(=N)N (stereo partly shown) [Compound 108] | + (Indicates inhibition greater than . . . 50%) |

| Structure (SMILES) | MC4 inhibition at 10 micromolar |
| --- | --- |
| CO[C@H]1[C@H](O)[C@@H](COCc2cccc(O)c2)OC(OCc2ccc(Cl)cc2)[C@@H]1NC(=O)CCNC(=N)N (stereo partly shown) [Compound 110] | + (Indicates inhibition greater than . . . 50%) |
| CO[C@H]1[C@H](O)[C@@H](COCc2ccc(-c3ccccc3)cc2)OC(OCc2cccc(O)c2)[C@@H]1NC(=O)CNC(=N)N (stereo partly shown) [Compound 112] | + (Indicates inhibition greater than . . . 50%) |
| CO[C@H]1[C@H](O)[C@@H](COCc2ccc(-c3ccccc3)cc2)OC(OCc2cccc(O)c2)[C@@H]1NC(=O)CCNC(=N)N (stereo partly shown) [Compound 113] | + (Indicates inhibition greater than . . . 50%) |
| CO[C@H]1[C@H](O)[C@@H](COCc2ccc(-c3ccccc3)cc2)OC(OCc2cccc(O)c2)[C@@H]1NC(=O)CCCN (stereo partly shown) [Compound 114] | + (Indicates inhibition greater than . . . 50%) |
| CO[C@H]1[C@H](O)[C@@H](COCc2ccc3ccccc3c2)OC(OCc2cccc(O)c2)[C@@H]1NC(=O)CCCNC(=N)N (stereo partly shown) [Compound 115] | + (Indicates inhibition greater than . . . 50%) |
| CO[C@H]1[C@H](O)[C@@H](COCc2ccc3ccccc3c2)OC(OCc2cccc(O)c2)[C@@H]1NC(=O)CCNC(=N)N (stereo partly shown) [Compound 116] | + (Indicates inhibition greater than . . . 50%) |
| CO[C@H]1[C@H](O)[C@@H](COCc2ccc3ccccc3c2)OC(OCc2cccc(O)c2)[C@@H]1NC(=O)CCCNC(=N)N (stereo partly shown) [Compound 117] | + (Indicates inhibition greater than . . . 50%) |
| CSC1OC(COCc2ccc3ccccc3c2)C(O)C(OCc2ccc(-c3ccccc3)cc2)C1NC(=O)CN (stereo not shown) [Compound 185] | + (Indicates inhibition greater than . . . 50%) |
| CSC1OC(COC(=O)Cc2ccccc2)C(O)C(OCc2cccc(N)c2)C1NCc1ccccc1 (stereo not shown) [Compound 308] | + (Indicates inhibition greater than . . . 50%) |
| CSC1OC(COC(=O)c2c[nH]c3ccccc23)C(O)C(OCc2cccc(N)c2)C1NCc1ccccc1 (stereo not shown) [Compound 309] | + (Indicates inhibition greater than . . . 50%) |
| CSC1OC(COC(=O)c2c[nH]c3ccccc23)C(O)C(OCc2cccc(N)c2)C1NCc1ccc(Cl)cc1 (stereo not shown) [Compound 314] | + (Indicates inhibition greater than . . . 50%) |
| CSC1O[C@H](COCc2ccccc2)[C@@H](O)[C@H](OCc2cccc(N)c2)[C@H]1NC(=O)Cc1ccccc1 (stereo partly shown) [Compound 317] | + (Indicates inhibition greater than . . . 50%) |
| CSC1O[C@H](COCc2ccccc2)[C@@H](O)[C@H](OCc2cccc(N)c2)[C@H]1NC(=O)c1c[nH]c2ccccc12 (stereo partly shown) [Compound 318] | + (Indicates inhibition greater than . . . 50%) |
| CSC1O[C@H](COCc2ccc(Cl)cc2)[C@@H](O)[C@H](OCc2cccc(N)c2)[C@H]1NC(=O)c1c[nH]c2ccccc12 (stereo partly shown) [Compound 323] | + (Indicates inhibition greater than . . . 50%) |
| CSC1O[C@H](COCc2ccc(Cl)cc2)[C@@H](O)[C@H](OCc2cccc(N)c2)[C@H]1NC(=O)CCC1CNc2ccccc21 (stereo partly shown) [Compound 325] | + (Indicates inhibition greater than . . . 50%) |
| CSC1OC(COCc2cccc(N)c2)C(O)C(OCc2ccccc2)C1NC(=O)c1c[nH]c2ccccc12 (stereo not shown) [Compound 328] | + (Indicates inhibition greater than . . . 50%) |
| CSC1OC(COCc2cccc(N)c2)C(O)C(OCc2ccc(Cl)cc2)C1NC(=O)CCC1CNc2ccccc21 (stereo not shown) [Compound 332] | + (Indicates inhibition greater than . . . 50%) |
| CSC1O[C@H](COCc2cccc(N)c2)[C@@H](O)[C@H](OCc2ccccc2)[C@H]1NC(=O)c1ccccc1 (stereo partly shown) [Compound 333] | + (Indicates inhibition greater than . . . 50%) |
| CSC1O[C@H](COCc2cccc(N)c2)[C@@H](O)[C@H](OCc2ccccc2)[C@H]1NC(=O)Cc1ccccc1 (stereo partly shown) [Compound 334] | + (Indicates inhibition greater than . . . 50%) |
| CSC1O[C@H](COCc2cccc(N)c2)[C@@H](O)[C@H](OCc2ccccc2)[C@H]1NC(=O)/C=C/c1ccccc1 (stereo partly shown) [Compound 335] | + (Indicates inhibition greater than . . . 50%) |
| CSC1O[C@H](COCc2cccc(N)c2)[C@@H](O)[C@H](OCc2ccc(Cl)cc2)[C@H]1NC(=O)/C=C/c1ccccc1 (stereo partly shown) [Compound 340] | + (Indicates inhibition greater than . . . 50%) |

Same assay, conditions: 10 micromolar; Example Library 4

| Structure (SMILES) | MC4 inhibition at 10 micromolar |
| --- | --- |
| COCC1OC(OCCc2ccccc2)C(NC(=O)CNC(=N)N)C(OCc2ccccc2)C1O (stereo not shown) [Compound 261] | + (Indicates inhibition greater than . . . 50%) |

Source: patent publication US7994140B2, “Classes of compounds that interact with GPCRs” (Alchemia Limited, priority 2002, dated 2011)
